Experiments:
Assay in all cases: relative viability (nuclei count vs DMSO), 5 days (fraction); higher = more cells survive
RU-SKI 43 + Navitoclax = compound: CC[C@@H](C)CNCC(=O)N1CCC2=C([C@@H]1COC3=CC=CC(=C3)C)C=CS2 [RU-SKI 43] + CC1(C)CCC(c2ccc(Cl)cc2)=C(CN2CCN(c3ccc(C(=O)NS(=O)(=O)c4ccc(N[C@H](CCN5CCOCC5)CSc5ccccc5)c(S(=O)(=O)C(F)(F)F)c4)cc3)CC2)C1 [Navitoclax] (partner 0.5 µM)
Outline: (§1)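 A single step with final 0.05% Triton X-100, 1% formaldehyde and 1 ug/ml Hoechst fixed the cells and stained nuclei 5 days after treatment. Lung cancer cell lines in 1536-well plates had been treated by pin tool the day after seeding with one drug alone or a fixed anchor-drug dose plus five library-drug doses (not always all listed) in √10 steps, and nuclei were counted on 4× images. Relative viability is the ratio of nuclei in treated wells to nuclei in vehicle wells, taken as the median of duplicate plates.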

RU-SKI 43 + Phenformin = compound: CC[C@@H](C)CNCC(=O)N1CCC2=C([C@@H]1COC3=CC=CC(=C3)C)C=CS2 [RU-SKI 43] + N=C(N)NC(=N)NCCc1ccccc1 [Phenformin] (partner 250 µM)
Outline: as §1

Irinotecan + Trametinib = compound: CCc1c2c(nc3ccc(OC(=O)N4CCC(N5CCCCC5)CC4)cc13)-c1cc3c(c(=O)n1C2)COC(=O)[C@]3(O)CC [Irinotecan] + CC(=O)Nc1cccc(-n2c(=O)n(C3CC3)c(=O)c3c(Nc4ccc(I)cc4F)n(C)c(=O)c(C)c32)c1 [Trametinib] (partner 0.02 µM)
Outline: as §1

Irinotecan + Luminespib = compound: CCc1c2c(nc3ccc(OC(=O)N4CCC(N5CCCCC5)CC4)cc13)-c1cc3c(c(=O)n1C2)COC(=O)[C@]3(O)CC [Irinotecan] + CCNC(=O)c1noc(-c2cc(C(C)C)c(O)cc2O)c1-c1ccc(CN2CCOCC2)cc1 [Luminespib] (partner 0.01 µM)
Outline: as §1

| Cell Line | relative viability (RU-SKI 43 + Navitoclax; first compound 0.1 µM) | relative viability (RU-SKI 43 + Navitoclax; first compound 0.3162 µM) | relative viability (RU-SKI 43 + Navitoclax; first compound 1 µM) | relative viability (RU-SKI 43 + Navitoclax; first compound 3.162 µM) | relative viability (RU-SKI 43 + Navitoclax; first compound 10 µM) | relative viability (RU-SKI 43 + Phenformin; first compound 0.1 µM) | relative viability (RU-SKI 43 + Phenformin; first compound 0.3162 µM) | relative viability (RU-SKI 43 + Phenformin; first compound 1 µM) | relative viability (RU-SKI 43 + Phenformin; first compound 3.162 µM) | relative viability (RU-SKI 43 + Phenformin; first compound 10 µM) | relative viability (Irinotecan + Trametinib; first compound 0.6325 µM) | relative viability (Irinotecan + Trametinib; first compound 2 µM) | relative viability (Irinotecan + Trametinib; first compound 6.325 µM) | relative viability (Irinotecan + Trametinib; first compound 20 µM) | relative viability (Irinotecan + Luminespib; first compound 0.6325 µM) | relative viability (Irinotecan + Luminespib; first compound 2 µM) | relative viability (Irinotecan + Luminespib; first compound 6.325 µM) | relative viability (Irinotecan + Luminespib; first compound 20 µM) |
| --- | --- | --- | --- | --- | --- | --- | --- | --- | --- | --- | --- | --- | --- | --- | --- | --- | --- | --- |
| LC-2-ad | 0.388 | 0.487 | 0.63 | 0.422 | 0.329 | 0.578 | 0.628 | 0.637 | 0.527 | 0.558 | 0.657 | 0.365 | 0.275 | 0.253 | 0.685 | 0.542 | 0.337 | 0.233 |
| NCI-H2085 | 1.17 | 1.11 | 1.2 | 1.08 | 1.12 | 0.758 | 0.652 | 0.709 | 0.698 | 0.631 | 0.521 | 0.397 | 0.32 | 0.252 | 0.312 | 0.431 | 0.445 | 0.519 |
